Results taken from US20240270855A1, “NEURO-MESENCHYME UNITS CONTROL ILC2 AND OBESITY VIA A BRAIN-ADIPOSE CIRCUIT” (Fundação D. Anna de Sommer Champalimaud e Dr. Carlos Montez …, priority 2021, published 2024).

Legend:
[1] = tested on: dopaminergic and noradrenergic neurons; experiment: Chemical sympathetic ablation with 6-OHDA, GAT ILC2 cytokines by flow cytometry; assay type: in vivo, mice
PDGFRA positive MSC = experiment: RNA sequencing of PDGFRA positive MSC from 6-OHDA-treated mice; assay type: in vivo; details: RNAseq, 6-OHDA vs vehicle
GAT = experiment: Quantitative RT-PCR gene expression in GAT and GAT cell populations after 6-OHDA or clenbuterol; assay type: in vivo, mice; details: for expression of IL-33: GAT and PDGFRA+MSCs of treated mice; for Gdnf expression in other mesenchymal counterparts, adipocytes and endothelial cells: GAT cell populations; for expression of IL-25: PDGFRA+MSCs of treated mice; for Gdnf expression in PDGFRA+MSC: sorted GAT cell population; for Gdnf expression in the GAT: total GAT RNA
RET [2] = biological target: RET (Homo sapiens, UniProt P07949); details: Akeno-Stuart et al., Cancer Res. 2007; cited from earlier work
RET [3] = details: Tokugawa et al., Neurochem Int. 2003; cited from earlier work
[4] = biological target: T1, beta-2 adrenergic receptor (ADRB2) (Mus musculus, UniProt P18762); experiment: Systemic activation of ADRB2 with clenbuterol, GAT ILC2 cytokines; assay type: in vivo, mice; details: clenbuterol in drinking water, 10 mg/kg/day, 8 days
T1 construct: endogenous in cells; host or cells: C57BL/6J mice in vivo

purified GAT PDGFRA+MSCs = experiment: In vitro MSC activation with clenbuterol, MSC-derived GDNF; assay type: cell-based, mice; details: 10 μg/ml clenbuterol, 16 hours
Procedure: In vitro and in vivo MSC activation: For in vitro experiments, purified GAT PDGFRA+MSCs were cultured in complete DMEM (supplemented with 10% FBS, 1% HEPES, sodium pyruvate, glutamine, streptomycin and penicillin (Corning)) at 37° C. After 2 hours of rest in complete DMEM without FBS, MSCs were stimulated for 16 hours with 10 μg/ml clenbuterol. For RNA analysis, MSCs were lysed using RLT buffer (Qiagen). For GDNF protein analysis, MSCs were incubated with brefeldin A (eBioscience) during clenbuterol stimulation prior to intracellular staining.

DREADD-carrying neurons = experiment: Chemogenetic modulation of GAT neurons (AAV DREADD injected in GAT, then CNO); assay type: in vivo, mice; details: for interleukin-33 (Il33) expression: vs contralateral control
[5] = tested on: GAT explant/ILC2 co-cultures; experiment: GAT explant/ILC2 co-culture with GDNF, Ucp1 expression; assay type: cell-based, mice; details: 50 ng/mL, 16 hours, Ret^WT vs Ret^Δ ILC2; RET dependent
Procedure: Quantitative RT-PCR: Total RNA from sorted or cultured cells was extracted using RNeasy micro kit or RNeasy mini kit (Qiagen) according to the manufacturer's protocol. When indicated, total adipose tissue or adipocyte fraction was collected to Trizol (Invitrogen) followed by chloroform and isopropanol RNA extraction, according to the manufacturer's protocol. RNA concentration was determined using Nanodrop Spectrophotometer (Nanodrop Technologies). Quantitative real-time PCR was performed in StepOne and QuantStudio 5 real-time PCR systems (Applied Biosystems) with Hprt and Gapdh as housekeeping genes. Briefly, High Capacity RNA-to-cDNA Kit (Applied Biosystems) were used to retro-transcribe RNA, followed by a pre-amplification PCR using TaqMan PreAmp Master Mix (Applied Biosystems). TaqMan Gene Expression Master Mix (Applied Biosystems) was used in the real-time PCR. TaqMan Gene Expression Assays (Applied Biosystems) were the following: Hprt Mm00446968_m1; Gapdh Mm99999915_g1; […] Mm00439646_m1; […] Mm00434204_m1; Areg Mm01354339_m1; Penk Mm01212875_m1; Ret Mm00436304_m1; Gdnf Mm00599849_m1; Ucp1 Mm01244861_m1; Adrb2 Mm02524224_s1; Il25 Mm00499822_m1; and Il33 Mm00505403_m1. Analysis was performed using the comparative CT method (2^−ΔCT). When comparison or fold change between samples was required, the comparative ΔCT method (2^−ΔΔCT) was applied. […]

[6] = GAT, 6-OHDA 200 mg/kg intraperitoneally 3 days and 1 day before analysis, vs vehicle
[7] = AAV(3D) (activator DREADD), vs sham contralateral control
[8] = AAV(4D) (inhibitor DREADD), vs sham contralateral control

Chain of RET (Homo sapiens, UniProt P07949) (P07949 29-1114): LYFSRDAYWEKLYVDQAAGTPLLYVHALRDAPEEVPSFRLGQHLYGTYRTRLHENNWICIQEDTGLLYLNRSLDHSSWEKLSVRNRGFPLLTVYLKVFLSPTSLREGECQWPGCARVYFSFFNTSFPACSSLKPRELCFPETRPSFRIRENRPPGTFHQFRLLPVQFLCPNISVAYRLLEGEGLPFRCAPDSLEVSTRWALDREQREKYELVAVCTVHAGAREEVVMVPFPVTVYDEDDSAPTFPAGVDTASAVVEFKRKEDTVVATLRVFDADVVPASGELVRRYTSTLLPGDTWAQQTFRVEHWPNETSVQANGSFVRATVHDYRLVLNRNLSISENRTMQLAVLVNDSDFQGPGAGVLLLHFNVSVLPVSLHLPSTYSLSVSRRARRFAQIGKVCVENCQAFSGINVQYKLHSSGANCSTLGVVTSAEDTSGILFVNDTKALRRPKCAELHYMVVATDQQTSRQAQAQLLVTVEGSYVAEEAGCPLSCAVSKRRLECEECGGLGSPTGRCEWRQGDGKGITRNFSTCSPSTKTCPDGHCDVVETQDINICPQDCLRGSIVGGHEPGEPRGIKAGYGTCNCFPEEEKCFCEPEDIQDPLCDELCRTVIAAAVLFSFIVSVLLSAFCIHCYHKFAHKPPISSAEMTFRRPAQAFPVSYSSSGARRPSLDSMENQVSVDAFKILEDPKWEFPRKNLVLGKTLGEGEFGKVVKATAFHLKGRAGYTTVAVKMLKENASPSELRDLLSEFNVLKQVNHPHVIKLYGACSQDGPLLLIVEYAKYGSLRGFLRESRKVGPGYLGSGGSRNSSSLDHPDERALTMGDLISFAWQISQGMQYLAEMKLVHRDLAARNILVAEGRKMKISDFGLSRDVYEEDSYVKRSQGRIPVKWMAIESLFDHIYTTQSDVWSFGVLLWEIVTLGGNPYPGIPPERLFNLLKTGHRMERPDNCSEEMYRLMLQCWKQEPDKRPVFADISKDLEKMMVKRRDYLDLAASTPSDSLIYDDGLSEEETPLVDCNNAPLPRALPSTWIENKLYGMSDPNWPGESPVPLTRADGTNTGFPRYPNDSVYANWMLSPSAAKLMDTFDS
T1 sequence (P18762 whole entry): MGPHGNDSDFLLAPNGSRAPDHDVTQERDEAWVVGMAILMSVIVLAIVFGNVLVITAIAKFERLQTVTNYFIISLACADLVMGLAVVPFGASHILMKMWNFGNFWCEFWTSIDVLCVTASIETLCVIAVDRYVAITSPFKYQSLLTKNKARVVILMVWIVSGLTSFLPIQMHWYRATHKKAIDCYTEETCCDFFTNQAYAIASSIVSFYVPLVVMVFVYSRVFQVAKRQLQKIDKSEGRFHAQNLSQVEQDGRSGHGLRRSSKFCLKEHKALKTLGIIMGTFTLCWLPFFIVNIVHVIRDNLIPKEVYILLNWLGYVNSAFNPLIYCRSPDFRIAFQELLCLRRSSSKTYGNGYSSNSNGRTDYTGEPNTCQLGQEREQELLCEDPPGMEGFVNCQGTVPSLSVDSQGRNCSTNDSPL

## NCCc1cc(O)c(O)cc1O [6-OHDA, 6-hydroxydopamine]
[1]; Adrb2^ΔIl7ra mice
  ILC2 cytokine production: still impaired
[1]; [6]
  ILC2-derived IL-13: pronounced reduction
  ILC2-derived Met-Enk: pronounced reduction
  ILC2-derived interleukin (IL-) 5: pronounced reduction
[1]; Ret^ΔIl5 mice
  ILC2 cytokine production: unperturbed
[1]; after 6-OHDA administration
  percentage of CD4 T cells: no change
PDGFRA positive MSC
  GDNF expression by PDGFRA positive MSC: significantly reduced
GAT
  expression of IL-33: unperturbed
  Gdnf expression in other mesenchymal counterparts, adipocytes and endothelial cells: unperturbed
  expression of IL-25: unperturbed
  Gdnf expression in PDGFRA+MSC: modulated
  Gdnf expression in the GAT: modulated

## CCN1CCN(Cc2ccc(NC(=O)Nc3ccc(Oc4cc(NC)ncn4)cc3)cc2C(F)(F)F)CC1 [AST 487, 1-[4-[(4-ethylpiperazin-1-yl)methyl]-3-(trifluoromethyl)phenyl]-3-[4-[6-(methylamino)pyrimidin-4-yl]oxyphenyl]urea]
RET [2]
  RET autophosphorylation and activation of downstream effectors: inhibit RET autophosphorylation

## CCN(CC)CCCC(C)Nc1cc(/C=C/c2ccccc2Cl)nc2cc(Cl)ccc12 (centres unmarked) [XIB4035, N(4)-(7-chloro-2-[(E)-2-(2-chloro-phenyl)-vinyl]-quinolin-4-yl)-N(1),N(1)-diethyl-pentane-1,4-diamine]
RET [3]
  RET autophosphorylation: induced RET autophosphorylation

## CC(C)(C)NCC(O)c1cc(Cl)c(N)c(Cl)c1 (centres unmarked) [clenbuterol]
[4]
  ILC2-derived cytokines in the GAT: increased
GAT
  expression of IL-33: unperturbed
  Gdnf expression in other mesenchymal counterparts, adipocytes and endothelial cells: unperturbed
  expression of IL-25: unperturbed
  Gdnf expression in PDGFRA+MSC: modulated
  Gdnf expression in the GAT: modulated
Purified GAT PDGFRA+MSCs
  MSC-derived GDNF: increased

## C[N+]1([O-])CCN(C2=Nc3cc(Cl)ccc3Nc3ccccc32)CC1 [CNO, Clozapine-N-oxide]
DREADD-carrying neurons; [7]
  GDNF expression in GAT: increased
  ILC2 function: increased
DREADD-carrying neurons; AAV(3D)
  interleukin-33 (Il33) expression: did not affect
DREADD-carrying neurons; [8]
  GDNF expression in GAT: reduced
  innate type 2 cytokines: reduced
DREADD-carrying neurons; AAV(4D)
  interleukin-33 (Il33) expression: did not affect

B1: GDNF: glial cell-derived neurotrophic factor, a GFRα ligand that activates RET (protein, UniProt P39905 78-211, looked up)
Glial cell line-derived …: SPDKQMAVLPRRERNRQAAAANPENSRGKGRRGQRGKNRGCVLTAIHLNVTDLGLGYETKEELIFRYCSGSCDAAETTYDKILKNLSRNRRLVSDKVGQACCRPIAFDDDLSFLDDNLVYHILRKHSAKRCGCI
[5]
  Ucp1 expression: efficiently induced
RET [3]
  RET autophosphorylation: induced RET autophosphorylation
